US20260308145A1, “CDK2 INHIBITORS AND METHODS OF USING SAME” (Shenzhen lonova Life Science Co., Ltd., priority 2023, published 2026)

How the values were obtained:
Format in all cases: biochemical
CDK1/cyclinB1 = target: T1, CDK1/cyclinB1 (Homo sapiens, UniProt P06493); assay: Cyclin-dependent kinase activity assay (continuous ATP coupling assay), CDK1/cyclinB1; details: CDK1/cyclinB1 10 nM, ATP 200 μM, Histone1 copeptide 100 μM, 15 min preincubation, pH 7.5, 1% DMSO
T1 construct: purchased Carna Biosciences 04-102
T1 sequence (P06493 whole entry): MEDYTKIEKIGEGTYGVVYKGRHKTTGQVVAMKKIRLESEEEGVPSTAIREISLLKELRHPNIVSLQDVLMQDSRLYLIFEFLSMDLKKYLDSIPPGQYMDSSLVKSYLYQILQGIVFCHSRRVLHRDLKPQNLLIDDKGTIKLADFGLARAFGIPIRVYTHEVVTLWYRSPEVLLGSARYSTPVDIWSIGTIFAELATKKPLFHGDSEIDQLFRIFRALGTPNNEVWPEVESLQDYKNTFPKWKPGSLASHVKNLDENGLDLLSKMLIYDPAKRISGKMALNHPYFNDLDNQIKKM
T1 sequence (P14635 whole entry partner): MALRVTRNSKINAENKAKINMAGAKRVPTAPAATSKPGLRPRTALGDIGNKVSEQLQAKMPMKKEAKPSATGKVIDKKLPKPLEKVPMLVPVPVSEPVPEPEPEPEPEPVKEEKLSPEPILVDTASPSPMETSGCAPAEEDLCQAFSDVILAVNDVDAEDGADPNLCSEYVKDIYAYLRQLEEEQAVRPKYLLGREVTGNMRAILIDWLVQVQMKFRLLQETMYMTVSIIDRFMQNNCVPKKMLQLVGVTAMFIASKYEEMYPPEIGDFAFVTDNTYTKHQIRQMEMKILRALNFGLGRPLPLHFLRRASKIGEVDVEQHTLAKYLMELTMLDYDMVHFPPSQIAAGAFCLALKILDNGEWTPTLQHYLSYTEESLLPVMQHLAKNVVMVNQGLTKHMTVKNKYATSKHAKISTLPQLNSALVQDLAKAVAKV
Experimental: (§1) Cyclin-dependent kinase activity assay was measured by continuous ATP coupling assay in which ADP generated by kinase catalyzed phosphorylation was converted back to ATP by consuming phosphoenolpyruvate (PEP) and NADH catalyzed by pyruvate kinase/lactate dehydrogenase (PK/LDH). The assay compositions (see, Table 1) consist of one of the kinases, including CDK1/cyclinB1, CDK2/cyclinE1, CDK4/cyclinD3, and CDK6/cyclinD3 at the designated concentration, ATP at the corresponding Km of the kinase, copeptide and the ATP coupling system of PEP, NADH and PK/LDH. The assay was conducted in a reaction buffer of 20 mM Tris (pH 7.5) with 50 mM NaCl, 0.5 mM DTT and 0.04% BSA, and results were monitored continuously by fluorescence decrease of NADH with excitation at 340 nm and emission at 460 nm. Linear regression of the resulting reaction time traces gave reaction velocities.
(§2) For inhibition assay, compounds were first serial diluted in a 1:3 ratio from 10 μM to 0.05 nM using 10× reaction buffer. One of the CDK kinase was then introduced to compounds solution and incubated for 15 min. Finally, the compositions of ATP coupling system were introduced to the resulting solution to initiate the reaction. The final reaction mixture was in 1× reaction assay buffer with 1% DMSO. The half-maximal inhibition concentrations (IC50) for compounds were determined by fitting the plots of reaction velocity against compound concentration with 4-variable IC50 equation. The inhibition constants (Ki) were determined by fitting the same plots with quadratic/Morrison equation. Data were analyzed using commercially available software Graphpad Prism.
(§3) Exemplary results are presented as calculated IC50 values. • A: IC50≤10 nM • B: IC50>10 nM and IC50<100 nM • C: IC50≥100 nM

CDK2/cyclinE1 = target: T2, CDK2/cyclinE1 (Homo sapiens, UniProt P24941); assay: Cyclin-dependent kinase activity assay (continuous ATP coupling assay), CDK2/cyclinE1; details: CDK2/cyclinE1 5 nM, ATP 300 μM, Rb copeptide 100 μM, 15 min preincubation, pH 7.5, 1% DMSO
T2 construct: purchased Carna Biosciences 04-165
Experimental: as §1, §2, §3

CDK4/cyclinD3 = target: T3, CDK4/cyclinD3 (Homo sapiens, UniProt P11802); assay: Cyclin-dependent kinase activity assay (continuous ATP coupling assay), CDK4/cyclinD3; details: CDK4/cyclinD3 60 nM, ATP 500 μM, Rb copeptide 500 μM, 15 min preincubation, pH 7.5, 1% DMSO
T3 construct: purchased Carna Biosciences 04-105
T3 sequence (P11802 whole entry): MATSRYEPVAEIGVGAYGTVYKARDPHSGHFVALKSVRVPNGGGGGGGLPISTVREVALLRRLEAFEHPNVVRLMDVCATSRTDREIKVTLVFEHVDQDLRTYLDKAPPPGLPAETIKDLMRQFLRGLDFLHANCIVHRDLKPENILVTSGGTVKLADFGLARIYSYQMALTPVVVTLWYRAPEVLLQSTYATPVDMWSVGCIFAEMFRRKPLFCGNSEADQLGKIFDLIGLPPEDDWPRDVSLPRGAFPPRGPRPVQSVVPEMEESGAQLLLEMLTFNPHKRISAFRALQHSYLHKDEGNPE
T3 sequence (P30281 whole entry partner): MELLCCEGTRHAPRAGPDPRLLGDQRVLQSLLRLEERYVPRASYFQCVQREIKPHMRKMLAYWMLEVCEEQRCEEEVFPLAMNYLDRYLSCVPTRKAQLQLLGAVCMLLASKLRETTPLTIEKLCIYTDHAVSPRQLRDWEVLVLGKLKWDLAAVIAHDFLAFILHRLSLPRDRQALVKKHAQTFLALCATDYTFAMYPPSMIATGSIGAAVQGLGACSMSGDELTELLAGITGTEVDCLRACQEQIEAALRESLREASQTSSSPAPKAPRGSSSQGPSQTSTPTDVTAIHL
Experimental: as §1, §2, §3

CDK6/cyclinD3 = target: T4, CDK6/cyclinD3 (Homo sapiens, UniProt Q00534); assay: Cyclin-dependent kinase activity assay (continuous ATP coupling assay), CDK6/cyclinD3; details: CDK6/cyclinD3 25 nM, ATP 500 μM, Rb copeptide 500 μM, 15 min preincubation, pH 7.5, 1% DMSO
T4 construct: purchased Carna Biosciences 04-107
T4 sequence (Q00534 whole entry): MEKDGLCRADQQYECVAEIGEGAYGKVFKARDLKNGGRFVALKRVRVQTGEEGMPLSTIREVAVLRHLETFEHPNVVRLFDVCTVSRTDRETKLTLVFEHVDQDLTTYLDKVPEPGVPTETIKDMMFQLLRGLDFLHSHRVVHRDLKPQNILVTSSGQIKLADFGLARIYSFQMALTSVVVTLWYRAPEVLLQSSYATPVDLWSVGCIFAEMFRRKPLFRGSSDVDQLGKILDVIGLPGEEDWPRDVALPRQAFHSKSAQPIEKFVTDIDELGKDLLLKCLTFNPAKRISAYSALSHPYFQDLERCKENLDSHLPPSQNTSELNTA
T4 sequence (P30281 whole entry partner): as the sequence (P30281 whole entry partner) above
Experimental: as §1, §2, §3

| IC50 (CDK1/cyclinB1) [nM] | IC50 (CDK2/cyclinE1) [nM] | IC50 (CDK4/cyclinD3) [nM] | IC50 (CDK6/cyclinD3) [nM] | Structure (SMILES) |
| --- | --- | --- | --- | --- |
| 10 to 100 | ≤ 10 | 10 to 100 | 10 to 100 | CNS(=O)(=O)c1ccc(Nc2ncc(C(F)(F)F)c(-n3cc(C[C@@H](C)O)cn3)n2)cc1 (single isomer, unassigned) [Example 5] |
| 10 to 100 | ≤ 10 | 10 to 100 | 10 to 100 | CNS(=O)(=O)c1ccc(Nc2ncc(C(F)(F)F)c(-n3cc(C[C@H](C)O)cn3)n2)cc1 (single isomer, unassigned) [Example 6] |
| ≥ 100 | 10 to 100 | ≥ 100 | 10 to 100 | CNS(=O)(=O)c1ccc(Nc2ncc(C(F)(F)F)c(-n3cc(C4CC4(F)F)cn3)n2)cc1 (single isomer, unassigned) [Example 52, 4-[[4-[4-(2,2-difluorocyclopropyl)pyrazol-1-yl]-5-(trifluoromethyl)pyrimidin-2-yl]amino]-N-methyl-benzenesulfonamide] |
| ≥ 100 | 10 to 100 | ≥ 100 | ≥ 100 | CNS(=O)(=O)c1ccc(Nc2ncc(C(F)(F)F)c(-n3cc(C4CC4(F)F)cn3)n2)cc1 (single isomer, unassigned) [Example 53, 4-[[4-[4-(2,2-difluorocyclopropyl)pyrazol-1-yl]-5-(trifluoromethyl)pyrimidin-2-yl]amino]-N-methyl-benzenesulfonamide] |
| 10 to 100 | 10 to 100 | 10 to 100 | ≥ 100 | CNS(=O)(=O)c1ccc(Nc2ncc(C(F)(F)F)c(-n3cc([C@H]4CCC[C@H]4O)cn3)n2)cc1 (single isomer, unassigned) [Example 77] |
| ≥ 100 | ≤ 10 | 10 to 100 | 10 to 100 | CNS(=O)(=O)c1ccc(Nc2ncc(C(F)(F)F)c(-n3cc([C@@H]4CC[C@@H](O)C4)cn3)n2)cc1 (single isomer, unassigned) [Example 78] |
| 10 to 100 | ≤ 10 | 10 to 100 | 10 to 100 | CNS(=O)(=O)c1ccc(Nc2ncc(C(F)(F)F)c(-n3cc([C@H]4CC[C@H](O)C4)cn3)n2)cc1 (single isomer, unassigned) [Example 79] |
| 10 to 100 | ≤ 10 | 10 to 100 | ≥ 100 | CNS(=O)(=O)c1ccc(Nc2ncc(C(F)(F)F)c(-n3cc(C4CCN(C)C4)cn3)n2)cc1 (single isomer, unassigned) [Example 95] |
| 10 to 100 | ≤ 10 | 10 to 100 | 10 to 100 | CNS(=O)(=O)c1ccc(Nc2ncc(C(F)(F)F)c(-n3cc(C4CCN(C)C4)cn3)n2)cc1 (single isomer, unassigned) [Example 96] |
| ≥ 100 | 10 to 100 | 10 to 100 | ≥ 100 | CNS(=O)(=O)c1ccc(Nc2ncc(C(F)(F)F)c(-n3cc([C@H]4C[C@](C)(O)C4)cn3)n2)cc1 (single isomer, unassigned) [Example 104, 4-((4-(4-((1s,3s)-3-hydroxy-3-methylcyclobutyl)-1H-pyrazol-1-yl)-5-(trifluoromethyl)pyrimidin-2-yl)amino)-N-methylbenzenesulfonamide] |
| 10 to 100 | 10 to 100 | 10 to 100 | 10 to 100 | CNS(=O)(=O)c1ccc(Nc2ncc(C(F)(F)F)c(-n3cc([C@H]4C[C@@](C)(O)C4)cn3)n2)cc1 (single isomer, unassigned) [Example 105, 4-((4-(4-((1r,3r)-3-hydroxy-3-methylcyclobutyl)-1H-pyrazol-1-yl)-5-(trifluoromethyl)pyrimidin-2-yl)amino)-N-methylbenzenesulfonamide] |
| 10 to 100 | ≤ 10 | 10 to 100 | 10 to 100 | CNS(=O)(=O)c1ccc(Nc2ncc(C(F)(F)F)c(-n3cc(CC(C)(C)O)cn3)n2)cc1 [Example 2, 4-((4-(4-(2-hydroxy-2-methylpropyl)-1H-pyrazol-1-yl)-5-(trifluoromethyl)pyrimidin-2-yl)amino)-N-methylbenzenesulfonamide] |
| 10 to 100 | 10 to 100 | 10 to 100 | ≥ 100 | CNS(=O)(=O)c1ccc(Nc2ncc(C(F)(F)F)c(-n3cc(CCC(C)(C)O)cn3)n2)cc1 [Example 3] |
| 10 to 100 | ≤ 10 | 10 to 100 | 10 to 100 | [2H]C([2H])([2H])NS(=O)(=O)c1ccc(Nc2ncc(C(F)(F)F)c(-n3cc(CCO)cn3)n2)cc1 [Example 10] |

The remaining lines, values behind:

| Structure (SMILES) | IC50 (CDK1/cyclinB1) [nM] | IC50 (CDK2/cyclinE1) [nM] | IC50 (CDK4/cyclinD3) [nM] | IC50 (CDK6/cyclinD3) [nM] |
| --- | --- | --- | --- | --- |
| CC(C)(O)Cc1cnn(-c2nc(N[C@@H]3CCOC[C@H]3O)ncc2C(F)(F)F)c1 (single isomer, unassigned) [Example 8] | ≥ 100 | ≥ 100 | 10 to 100 | 10 to 100 |
| CC(C)(O)Cc1cnn(-c2nc(N[C@H]3CCOC[C@@H]3O)ncc2C(F)(F)F)c1 (single isomer, unassigned) [Example 9] | ≥ 100 | ≥ 100 | ≥ 100 | ≥ 100 |
| CNS(=O)(=O)c1ccc(Nc2ncc(C(F)(F)F)c(-n3cc([C@@H]4CCC[C@H]4O)cn3)n2)cc1 (single isomer, unassigned) [Example 74] | ≥ 100 | 10 to 100 | 10 to 100 | ≥ 100 |
| CNS(=O)(=O)c1ccc(Nc2ncc(C(F)(F)F)c(-n3cc([C@H]4CCC[C@@H]4O)cn3)n2)cc1 (single isomer, unassigned) [Example 75] | ≥ 100 | 10 to 100 | 10 to 100 | ≥ 100 |
| CNS(=O)(=O)c1ccc(Nc2ncc(C(F)(F)F)c(-n3cc([C@@H]4CCC[C@@H]4O)cn3)n2)cc1 (single isomer, unassigned) [Example 76] | ≥ 100 | 10 to 100 | 10 to 100 | ≥ 100 |
| CNS(=O)(=O)c1ccc(Nc2ncc(C(F)(F)F)c(-n3cc(C4CCOC4)cn3)n2)cc1 (single isomer, unassigned) [Example 89] | ≥ 100 | ≤ 10 | 10 to 100 | 10 to 100 |
| CNS(=O)(=O)c1ccc(Nc2ncc(C(F)(F)F)c(-n3cc(C4CCOC4)cn3)n2)cc1 (single isomer, unassigned) [Example 90] | ≥ 100 | 10 to 100 | 10 to 100 | 10 to 100 |
| CNS(=O)(=O)c1ccc(Nc2ncc(C(F)(F)F)c(-n3cc(C4CCCN4)cn3)n2)cc1 (single isomer, unassigned) [Example 92] | 10 to 100 | ≤ 10 | ≤ 10 | 10 to 100 |
| CNS(=O)(=O)c1ccc(Nc2ncc(C(F)(F)F)c(-n3cc(C4CCNC4)cn3)n2)cc1 (single isomer, unassigned) [Example 93] | 10 to 100 | ≤ 10 | 10 to 100 | ≥ 100 |
| CC(O)Cc1cnn(-c2nc(NC3CCN(S(C)(=O)=O)CC3)ncc2C(F)(F)F)c1 (single isomer, unassigned) [Example 107] | 10 to 100 | ≤ 10 | 10 to 100 | 10 to 100 |
| CC(O)Cc1cnn(-c2nc(NC3CCN(S(C)(=O)=O)CC3)ncc2C(F)(F)F)c1 (single isomer, unassigned) [Example 108] | ≥ 100 | 10 to 100 | 10 to 100 | 10 to 100 |
| CC(C)(O)c1cnn(-c2nc(NC3CCN(S(C)(=O)=O)CC3)ncc2F)c1 [Example 1, 2-(1-(5-fluoro-2-((1-(methylsulfonyl)piperidin-4-yl)amino)pyrimidin-4-yl)-1H-pyrazol-4-yl)propan-2-ol] | ≥ 100 | 10 to 100 | 10 to 100 | 10 to 100 |
| CNS(=O)(=O)c1ccc(Nc2ncc(C(F)(F)F)c(-n3ccc(CC(C)(C)O)n3)n2)cc1 [Example 4] | ≥ 100 | 10 to 100 | ≥ 100 | ≥ 100 |
| CC(C)(O)Cc1cnn(-c2nc(NC3CCN(S(C)(=O)=O)CC3)ncc2C(F)(F)F)c1 [Example 7] | 10 to 100 | ≤ 10 | 10 to 100 | 10 to 100 |
| CNS(=O)(=O)c1ccc(Nc2ncc(C(F)(F)F)c(-n3cc(C4CCCC4)cn3)n2)cc1 [Example 11, 4-((4-(4-cyclopentyl-1H-pyrazol-1-yl)-5-(trifluoromethyl)pyrimidin-2-yl)amino)-N-methylbenzenesulfonamide] | 10 to 100 | ≤ 10 | ≤ 10 | 10 to 100 |
